The values that follow come from BindingDB's records for doi:10.1021/jm100809g (F. Hoffmann-La Roche, 2011).

By IC50 is commonly meant the concentration needed to halve the response being measured. High values mean weaker potency in that assay, low ones greater potency in that assay.

For the assay, the target named is Carnitine O-palmitoyltransferase 1, liver isoform (Rattus norvegicus) (UniProt P32198). The assay is described as follows: Maximal inhibition of rat CPT1A.
Carnitine O-palmitoyltransferase 1, liver isoform (Rattus norvegicus), sequence (P32198 whole entry, looked up, canonical isoform): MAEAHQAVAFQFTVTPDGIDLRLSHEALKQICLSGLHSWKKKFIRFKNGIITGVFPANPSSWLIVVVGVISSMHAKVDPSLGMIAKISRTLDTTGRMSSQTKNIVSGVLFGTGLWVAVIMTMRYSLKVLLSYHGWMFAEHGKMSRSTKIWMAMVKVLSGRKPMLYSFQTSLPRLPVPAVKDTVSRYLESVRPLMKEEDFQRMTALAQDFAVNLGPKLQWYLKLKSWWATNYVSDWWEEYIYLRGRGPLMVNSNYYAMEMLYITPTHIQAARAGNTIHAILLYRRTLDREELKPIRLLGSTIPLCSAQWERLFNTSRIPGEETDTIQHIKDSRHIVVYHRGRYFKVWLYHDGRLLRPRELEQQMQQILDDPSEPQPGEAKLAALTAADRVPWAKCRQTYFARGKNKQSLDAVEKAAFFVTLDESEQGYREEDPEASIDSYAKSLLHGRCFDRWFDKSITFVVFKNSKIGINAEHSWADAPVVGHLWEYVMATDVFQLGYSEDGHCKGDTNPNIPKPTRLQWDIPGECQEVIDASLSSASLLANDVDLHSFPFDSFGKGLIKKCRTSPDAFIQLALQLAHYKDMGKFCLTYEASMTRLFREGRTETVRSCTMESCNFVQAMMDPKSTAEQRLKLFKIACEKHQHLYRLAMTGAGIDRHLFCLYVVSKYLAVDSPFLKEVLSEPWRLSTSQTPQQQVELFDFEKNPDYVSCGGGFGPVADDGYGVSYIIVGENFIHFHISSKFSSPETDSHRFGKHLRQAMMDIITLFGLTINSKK
`C[N+](C)(C)C[C@H](N)CC(=O)[O-]` came in with an IC50 of 27.3 µM.
In turn, `O=C(COc1ccccc1)N1CCCC[C@@H]1c1nc(-c2ccccn2)cs1` had an IC50 of 0.13 µM.
Consider `COc1ccc(C)cc1S(=O)(=O)N1CCCc2ccc(C(=O)Nc3ccc(CC(=O)O)cc3)cc21`, for which the IC50 was determined as 0.18 µM.
In the case of `COc1ccc(Cl)cc1S(=O)(=O)N1CC(C(=O)O)Oc2ccc(C(=O)Nc3cccc(F)c3)cc21` (configuration not stated), the IC50 came to 0.03 µM.
The same measure for `COc1ccc(Cl)cc1S(=O)(=O)N1CCc2ccc(C(=O)Nc3ccc(C(=O)O)cc3)cc21`: 0.055 µM; for `O=C(NCc1cccs1)c1nn(Cc2cccc(C(F)(F)F)c2)c2ccccc12`: 0.15 µM.
With `CCCCCCCCCCCCCCNC(=O)N[C@H](CC(=O)[O-])C[N+](C)(C)C` [[3-Carboxy-2-(3-tetradecyl-ureido)-propyl]-trimethyl-ammonium], the 50% inhibitory concentration (IC50) worked out at 1.45 µM.
